# B1: Noggin: BMP inhibitor protein (Peprotech) (protein, UniProt Q13253 28-232, looked up)
# Noggin: QHYLHIRPAPSDNLPLVDLIEHPDPIFDPKEKDLNETLLRSLLGGHYDPGFMATSPPEDRPGGGGGAAGGAEDLAELDQLLRQRPSGAMPSEIKGLEFSEGLAQGKKQRLSKKLRRKLQMWLWSQTFCPVLYAWNDLGSRFWPRYVKVGSCFSKRSCSVPEGMVCKPSKSVHLTVLRWRCQRRGGQRCGWIPIQYPIISECKCSC
# B2: TGFβ3: TGFβ signaling activator protein (R&D, Peprotech) (protein, UniProt P10600 301-412, looked up)
# Transforming growth factor …: ALDTNYCFRNLEENCCVRPLYIDFRQDLGWKWVHEPKGYYANFCSGPCPYLRSADTTHSTVLGLYNTLNPEASASPCCVPQDLEPLTILYYVGRTPKVEQLSNMVVKSCKCS
# B3: TGFβ2: TGFβ signaling activator protein (Peprotech) (protein, UniProt P61812 303-414, looked up)
# Transforming growth factor …: ALDAAYCFRNVQDNCCLRPLYIDFKRDLGWKWIHEPKGYNANFCAGACPYLWSSDTQHSRVLSLYNTINPEASASPCCVSQDLEPLTILYYIGKTPKIEQLSNMIVKSCKCS
# What was measured:
# [1] = test system: OSR1-GFP & SIX2-tdTomato reporter human iPS cell line; test: SIX2-positive cell induction method 1, SIX2-tdTomato-positive cell rate by flow cytometer; format: cell-based; settings: for SIX2-positive cell rate: induction method 1 stage 3, Dorsomorphin replaced with 0.5 μM LDN193189 and TGFβ1 with 10 ng/ml TGFβ2 or TGFβ3
# Protocol: The OSR1-GFP & SIX2-tdTomato reporter human iPS cell line obtained by the method in Example 1 was cultured at 37° C. in a 2-5% CO2 atmosphere to become confluent on 10-cm dishes containing a primate ES/iPS cell medium (ReproCELL) supplemented with 5 ng/ml bFGF (Wako) with the use of SNL cells (McMahon, A. P. and Bradley, A. (1990) Cell 62; 1073-1085) (the cells being treated with 15.5 μg/ml mitomycin (Kyowa Hakko Kirin Co., Ltd.) for 2 to 3 hours and seeded at a density of 3×10^5 cells/10-cm dish) as feeder cells. A CTK solution (2.5% Trypsin (Invitrogen), 1 mg/ml Collagenase IV (Invitrogen), 0.1 M CaCl2, 10 mL KnockOut SR (Invitrogen), and 29.5 mL H2O) was added to dissociate the cells. After removal of the feeder cells, the dissociated cells were suspended in a DMEM/F12 medium containing 1 μM CHIR99021 (Stemgent, 04-0004), 100 ng/ml Activin A (R&D Systems, 338-AC), 1% GlutaMAX (100×) (Invitrogen, 35050-061), 2% FBS (Hyclone), and 0.5% PenStrep (Invitrogen, 10565). Then, the cell suspensions were transferred to a low cell binding plate (LOW CELL BIND 6 WELL DISH (Nunc, 145383)) such that each well contained one-third to one-sixth of the cell suspension obtained from the 10-cm dish, followed by suspension culture at 37° C. in a 5% CO2 atmosphere for 2 days.
# The cell mass obtained at stage 1 was transferred to a 24-well or 6-well dish coated with Matrigel (BD Matrigel Matrix Growth Factor Reduced (BD Biosciences, 356230) (the dish being coated with 0.2 mg/ml Matrigel in DMEM and treated at 37° C. for 30 minutes or at 4° C. overnight) or a 24-well or 6-well dish coated with Synthemax (Corning Synthemax II-SC Substrate (Corning, 3535XX1)) (the dish being coated with Synthemax diluted 40-fold with sterile water and treated at room temperature for 2 hours). The medium was exchanged with a DMEM/F12 medium containing 1 μM CHIR99021, 100 ng/ml BMP7 (Recombinant human BMP7 (R&D Systems, 3534-BP)), 0.1% 2-mercaptoethanol (1000×) (Invitrogen, 21985), 1% GlutaMAX (100×), 10% KnockOut SR (Invitrogen), 0.1 mM MEM NEAA (Invitrogen, 11140), and 0.5% PenStrep, followed by adhesion culture at 37° C. in a 5% CO2 atmosphere for 3 to 6 days. In the case of culture for 3 days or more, the medium was exchanged every 3 days with a medium having the same conditions.
# The medium was removed from the cells obtained at stage 2. The cells were washed with PBS and then the medium was exchanged with a DMEM/F12 medium containing 5 ng/ml TGFβ1 (Peprotech, 100-21C), 0.5 μM Dorsomorphin (AMPK Inhibitor, Compound C (Merck, 171260)), 0.1% 2-mercaptoethanol (1000×), 1% GlutaMAX (100×), 10% KnockOut SR, 0.1 mM MEM NEAA, and 0.5% PenStrep, followed by suspension culture at 37° C. in a 5% CO2 atmosphere for 15 to 22 days. In this case, the medium was exchanged every 3 days with a medium having the same conditions.
# At stage 3 of SIX2-positive cell induction method 1, Dorsomorphin was replaced with 100 ng/ml Noggin (Peprotech), 0.5 μM LDN193189 (Axon MedChem, 1509), or 0.5 μM DMH1 (Tocris, 4126) for differentiation induction in the aforementioned manner.
# At stage 3 of SIX2-positive cell induction method 1, TGFβ1 was exchanged with 50 μM IDE1 (Tocris) or 50 μM IDE2 (Tocris) for differentiation induction in the aforementioned manner.
# At stage 3 of SIX2-positive cell induction method 1, Dorsomorphin was replaced with 0.5 μM LDN193189, while TGFβ1 with 10 ng/ml TGFβ2 (Peprotech) or 10 ng/ml TGFβ3 (R&D), for differentiation induction in the aforementioned manner. As a result, the SIX2-positive cell rates were 8.6% and 9.3%, respectively (FIGS. 2G and 2H).
# [2] = test system: OSR1-GFP & SIX2-tdTomato reporter human iPS cell line (4A6C3-10); test: SIX2-positive cell induction method 4, OSR1+SIX2+ cell rate by flow cytometer; format: cell-based
# Protocol: 4A6C3-10 was cultured at 37° C. in a 2% to 5% CO2 atmosphere to become 70% to 80% confluent on 10-cm dishes containing a primate ES medium (ReproCELL) supplemented with 500 U/ml penicillin/streptomycin (Invitrogen) and 5 ng/ml recombinant human basic fibroblast growth factor (bFGF, Wako) with the use of ICR-mouse-embryo (fetus 12.5 days old)-derived mouse embryonic fibroblasts (MEF) or SNL feeder cells (McMahon, A. P. and Bradley, A. (1990) Cell 62; 1073-1085) (these cells being previously treated with 15.5 μg/ml mitomycin (Kyowa Hakko Kirin Co., Ltd.) for 2 to 3 hours and seeded at a density of 2×10^5 cells/6-cm dish) as feeder cells. The 10-cm plates containing the cells were rinsed with PBS and treated with a CTK solution (PBS containing 0.25% Trypsin (Invitrogen), 0.1% Collagenase IV (Invitrogen), 20% KnockOut SR (KSR, Invitrogen), and 1 mM CaCl2) at 37° C. for 4 minutes. The CTK solution was removed by rinsing with PBS. Then, the medium was exchanged with DMEM/F12+Glutamax (Invitrogen) containing 0.1 mM MEM NEAA (Invitrogen), 1000 U/ml penicillin/streptomycin, 0.55 mM 2-mercaptoethanol (Invitrogen), and 20% KSR. Subsequently, the cells were scraped using a cell scraper and seeded on 6-cm plates coated with 0.2% gelatin to remove feeder cells. One hour later, the cells were washed with DMEM/F12+Glutamax [stage-1 medium] containing 500 U/ml penicillin/streptomycin and 2% FBS (HyClone), transferred to ultra-low attachment dishes (Corning 3471) having a stage-1 medium containing 100 ng/ml recombinant human/mouse/rat Activin A (R&D Systems) and 1 μM CHIR99021, and cultured at 37° C. in a 5% CO2 atmosphere for 2 days.
# In order to differentiate into the intermediate mesoderm, the cell mass (embryoid body (EB)) obtained at stage 1 was transferred to a 24-well plate coated with Synthemax II (Corning), the medium was exchanged with DMEM/F12+Glutamax containing 0.1 mM MEM NEAA, 500 U/ml penicillin/streptomycin, 0.55 mM 2-mercaptoethanol, 10% KSR, 100 ng/ml BMP7 (recombinant human BMP7, R&D Systems), and 1 μM CHIR99021, and the cells were cultured at 37° C. in a 5% CO2 atmosphere for 3 days.
# After stage 2, the medium was exchanged with DMEM/F12+Glutamax containing 0.1 mM MEM NEAA, 500 U/ml penicillin/streptomycin, 0.55 mM 2-mercaptoethanol, 10% KSR, 1 μM TTNPB (Sigma T3757), and 5 ng/ml TGFβ1 (Peprotech), followed by culturing at 37° C. in a 5% CO2 atmosphere for 5 days. The medium was exchanged with a medium having the same conditions two days after the start of culture (i.e., day 8 from the start of stage 1 (day 1)).
# After stage 3, the medium was exchanged with DMEM/F12+Glutamax containing 0.1 mM MEM NEAA, 500 U/ml penicillin/streptomycin, 0.55 mM 2-mercaptoethanol, 10% KSR, 5 ng/ml TGFβ1, and 0.5 μM DMH1 (Tocris), followed by culturing at 37° C. in a 5% CO2 atmosphere for 17 days (i.e., culturing for 28 days in total from the start of stage 1 (day 1); FIG. 3A). In this case, the medium was exchanged every 3 days with a medium having the same conditions. […] In addition, the OSR1^+SIX2^+ cell rate reached the maximum level on day 25 of culture and then it was confirmed to be maintained until day 28 of culture (FIG. 3D).
# Induction of OSR1^+SIX2^+ cells from the 4A6C3-10 iPS cell line was examined using different combinations of TGFβ signaling activators and BMP inhibitors. Specifically, induction of OSR1^+SIX2^+ cells from 4A6C3-10 was examined under conditions 1) to 10) described below. […]
# [3] = induction method 1 stage 3, Dorsomorphin replaced with 100 ng/ml Noggin, 0.5 μM LDN193189 or 0.5 μM DMH1, with TGFβ1
# [4] = induction method 1 stage 3, TGFβ1 exchanged with 50 μM IDE1 or 50 μM IDE2, with Dorsomorphin
molecule,measurement,setting,value
"CC(C)Oc1ccc(-c2cnc3c(-c4ccnc5ccccc45)cnn3c2)cc1 [DMH1, 4-[6-[4-(1-Methylethoxy)phenyl]pyrazolo[1,5-a]pyrimidin-3-yl]-quinoline]",SIX2-tdTomato-positive cell rate,[1]; [3],15.4%
same,induction of OSR1+SIX2+ cells,"[2]; Example 8, comparison of combinations of TGFβ signaling activators and BMP inhibitors at stage 4 (FIG. 4)",effective
same,OSR1-positive and SIX2-positive (OSR1+SIX2+) cell rate,"[2]; induction method 4, stage 4 medium with 5 ng/ml TGFβ1 and 0.5 μM DMH1, day 28 of culture",32.8%
"O=C(O)CCCCCC(=O)N/N=C\c1ccccc1C(=O)O [IDE1, (Z)-2-((2-(6-carboxyhexanoyl)hydrazono)methyl)benzoic acid]",SIX2-tdTomato-positive cell rate,[1]; [4],8.4%
"O=C(O)CCCCCC(=O)NN=C1CCCC1 [IDE2, 7-(2-cyclopentylidenehydrazinyl)-7-oxoheptanoic acid]",SIX2-tdTomato-positive cell rate,[1]; [4],39.4%
"c1ccc2c(-c3cnn4cc(-c5ccc(N6CCNCC6)cc5)cnc34)ccnc2c1 [LDN193189, 4-(6-(4-(piperazin-1-yl)phenyl)pyrazolo[1,5-a]pyrimidin-3-yl)quinoline]",SIX2-tdTomato-positive cell rate,[1]; [3],20.4%
NC(=O)c1ccc(-c2nc(-c3ccc4c(c3)OCO4)c(-c3ccccn3)[nH]2)cc1 [SB431542],differentiation into OSR1+SIX2+ cells,[2]; stage 4 medium with 10 μM SB431542 together with 5 ng/ml TGFβ1 and 0.5 μM DMH1 (condition 11),inhibited
B1,SIX2-tdTomato-positive cell rate,[1]; [3],7.5%
B2,SIX2-positive cell rate,[1],9.3%
B3,SIX2-positive cell rate,[1],8.6%
